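96-well plates; 48 h exposure; 5 concentrations. Endpoints by linear interpolation between flanking doses. Not reached: highest tested concentration assigned. TGI: concentration producing complete growth inhibition.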
Tests used:
Assay in all cases: NCI tumour cell line growth inhibition, 48 h
[1] = system: HT29 colon
[2] = system: SF-539 CNS
[3] = system: OVCAR-8 ovarian
[4] = system: LXFL 529 NSCLC
[5] = system: DLD-1 colon
[6] = system: K-562 leukemia
[7] = system: OVCAR-3 ovarian
[8] = system: HL-60(TB) leukemia
[9] = system: SK-MEL-28 melanoma
[10] = system: A549 NSCLC
[11] = system: ACHN renal
[12] = system: SNB-19 CNS
[13] = system: RPMI-8226 leukemia
[14] = system: RXF-631 renal
[15] = system: RXF 393 renal
[16] = system: NCI-H226 lung
[17] = system: U251 CNS
[18] = system: COLO 205 colon
[19] = system: SNB-75 CNS
[20] = system: UACC-62 melanoma
[21] = system: OVCAR-4 ovarian
[22] = system: NCI-H460 lung
[23] = system: EKVX NSCLC
[24] = system: TK-10 renal
[25] = system: CCRF-CEM leukemia
[26] = system: HOP-18 NSCLC
[27] = system: SW-620 colon
[28] = system: SK-MEL-5 melanoma
[29] = system: OVCAR-5 ovarian
[30] = system: 786-0 renal
[31] = system: DMS 114 small cell lung
[32] = system: LOX IMVI melanoma
[33] = system: SNB-78 CNS
[34] = system: IGROV1 ovarian
[35] = system: SF-268 CNS
[36] = system: UO-31 renal
[37] = system: SK-OV-3 ovarian
[38] = system: M14 melanoma
[39] = system: SR leukemia
[40] = system: M19-MEL melanoma
[41] = system: MOLT-4 leukemia
[42] = system: SF-295 CNS
[43] = system: NCI-H23 lung
[44] = system: KM12 colon
[45] = system: DMS 273 small cell lung
[46] = system: HOP-92 NSCLC
[47] = system: MALME-3M melanoma
[48] = system: SK-MEL-2 melanoma
[49] = system: KM20L2 colon
[50] = system: HOP-62 NSCLC
[51] = system: A498 renal
[52] = system: UACC-257 melanoma
[53] = system: SN12C renal
[54] = system: HCC-2998 colon
[55] = system: HCT-116 colon
[56] = system: NCI-H522 lung
[57] = system: HCT-15 colon
[58] = system: CAKI-1 renal

O=C1C(c2ccc([N+](=O)[O-])cc2)=[N+]([O-])c2ccc([N+](=O)[O-])cc21
TGI [1]: > 100 µM | TGI [2]: > 100 µM | TGI [3]: > 100 µM | TGI [4]: > 100 µM | TGI [5]: > 100 µM | TGI [6]: > 100 µM | TGI [7]: 55.8 µM | TGI [8]: 43.7 µM | TGI [9]: > 100 µM | TGI [10]: > 100 µM | TGI [11]: > 100 µM | TGI [12]: > 100 µM | TGI [13]: > 100 µM | TGI [14]: > 100 µM | TGI [15]: > 100 µM | TGI [16]: > 100 µM | TGI [17]: > 100 µM | TGI [18]: > 100 µM | TGI [19]: > 100 µM | TGI [20]: 47.5 µM | TGI [21]: > 100 µM | TGI [22]: > 100 µM | TGI [23]: > 100 µM | TGI [24]: > 100 µM | TGI [25]: 74.1 µM | TGI [26]: > 100 µM | TGI [27]: > 100 µM | TGI [28]: > 100 µM | TGI [29]: > 100 µM | TGI [30]: > 100 µM | TGI [31]: > 100 µM | TGI [32]: > 100 µM | TGI [33]: > 100 µM | TGI [34]: 76.9 µM | TGI [35]: > 100 µM | TGI [36]: > 100 µM | TGI [37]: 83.2 µM | TGI [38]: > 100 µM | TGI [39]: > 100 µM | TGI [40]: 88.2 µM | TGI [41]: > 100 µM | TGI [42]: > 100 µM | TGI [43]: > 100 µM | TGI [44]: > 100 µM | TGI [45]: > 100 µM

CN(C)C(=S)OC(Cn1cncn1)c1ccc(Cl)cc1Cl (stereo not drawn)
TGI [46]: > 100 µM | TGI [47]: > 100 µM | TGI [48]: > 100 µM | TGI [1]: > 100 µM | TGI [2]: > 100 µM | TGI [3]: > 100 µM | TGI [49]: > 100 µM | TGI [4]: > 100 µM | TGI [5]: > 100 µM | TGI [6]: > 100 µM | TGI [7]: > 100 µM | TGI [8]: > 100 µM | TGI [9]: > 100 µM | TGI [10]: > 100 µM | TGI [11]: > 100 µM | TGI [12]: > 100 µM | TGI [13]: > 100 µM | TGI [14]: > 100 µM | TGI [15]: > 100 µM | TGI [16]: > 100 µM | TGI [17]: > 100 µM | TGI [18]: > 100 µM | TGI [19]: > 100 µM | TGI [20]: > 100 µM | TGI [50]: > 100 µM | TGI [51]: > 100 µM | TGI [21]: > 100 µM | TGI [52]: > 100 µM | TGI [22]: > 100 µM | TGI [53]: > 100 µM | TGI [23]: > 100 µM | TGI [54]: > 100 µM | TGI [24]: > 100 µM | TGI [55]: > 100 µM | TGI [26]: > 100 µM | TGI [27]: > 100 µM | TGI [28]: > 100 µM | TGI [29]: > 100 µM | TGI [30]: > 100 µM | TGI [31]: > 100 µM | TGI [32]: > 100 µM | TGI [34]: > 100 µM | TGI [35]: > 100 µM | TGI [36]: > 100 µM | TGI [37]: > 100 µM | TGI [38]: > 100 µM | TGI [56]: > 100 µM | TGI [40]: > 100 µM | TGI [41]: > 100 µM | TGI [57]: > 100 µM | TGI [42]: > 100 µM | TGI [43]: > 100 µM | TGI [44]: > 100 µM | TGI [45]: > 100 µM | TGI [58]: > 100 µM

COc1ccc(N2C(=O)/C(=C/c3ccc(N(CCC#N)CCC#N)cc3C)N=C2/C=C\c2ccccc2)cc1
TGI [46]: > 100 µM | TGI [47]: > 100 µM | TGI [48]: > 100 µM | TGI [1]: > 100 µM | TGI [2]: 56.9 µM | TGI [3]: > 100 µM | TGI [49]: 40 µM | TGI [4]: > 100 µM | TGI [5]: > 100 µM | TGI [6]: > 100 µM | TGI [7]: > 100 µM | TGI [8]: > 100 µM | TGI [9]: > 100 µM | TGI [10]: > 100 µM | TGI [11]: > 100 µM | TGI [12]: > 100 µM | TGI [13]: > 100 µM | TGI [14]: > 100 µM | TGI [16]: > 100 µM | TGI [17]: > 100 µM | TGI [18]: 92 µM | TGI [19]: > 100 µM | TGI [20]: 60.7 µM | TGI [50]: 69.6 µM | TGI [21]: > 100 µM | TGI [52]: > 100 µM | TGI [22]: > 100 µM | TGI [53]: > 100 µM | TGI [24]: > 100 µM | TGI [25]: > 100 µM | TGI [55]: > 100 µM | TGI [26]: > 100 µM | TGI [27]: > 100 µM | TGI [28]: > 100 µM | TGI [29]: > 100 µM | TGI [30]: > 100 µM | TGI [31]: > 100 µM | TGI [32]: > 100 µM | TGI [33]: > 100 µM | TGI [34]: > 100 µM | TGI [35]: > 100 µM | TGI [36]: 75 µM | TGI [37]: > 100 µM | TGI [38]: > 100 µM | TGI [39]: > 100 µM | TGI [56]: > 100 µM | TGI [40]: > 100 µM | TGI [41]: > 100 µM | TGI [57]: > 100 µM | TGI [42]: > 100 µM | TGI [43]: > 100 µM | TGI [44]: > 100 µM | TGI [58]: > 100 µM
